# Assays:
# Assay type in all cases: cell-based
# α1β3γ2L GABAARs [1] = target: T1, α1β3γ2L GABAARs (Homo sapiens, UniProt P14867+P18507+P28472); test: whole-cell patch clamp, potentiation of GABA-induced current
# T1 construct: gene GABRA1; full-length wild-type subunits co-transfected 1:1:1 (plasmid ratio) in HEK293T cells; EGFP from a separate EF1a promoter on the GABRG2 plasmid; with Gamma-aminobutyric acid receptor subunit gamma-2
# α1β3γ2L GABAARs [2] = target: T1, α1β3γ2L GABAARs; test: whole-cell patch clamp, inhibition of GABA-induced current; conditions: 100 μM compound, 1 μM GABA, 15 s pre-treatment, -50 mV, pH 7.4, 22-25 °C
# α1β3γ2L GABAARs [3] = target: T1, α1β3γ2L GABAARs; test: as above; conditions: -50 mV, pH 7.4, 22-25 °C
# α1β3γ2L GABAARs [4] = target: T1, α1β3γ2L GABAARs; test: as above; conditions: -50 mV, pH 7.4, 22-25 °C; remark: listed apart in the source
# T1 sequence (P14867 28-456): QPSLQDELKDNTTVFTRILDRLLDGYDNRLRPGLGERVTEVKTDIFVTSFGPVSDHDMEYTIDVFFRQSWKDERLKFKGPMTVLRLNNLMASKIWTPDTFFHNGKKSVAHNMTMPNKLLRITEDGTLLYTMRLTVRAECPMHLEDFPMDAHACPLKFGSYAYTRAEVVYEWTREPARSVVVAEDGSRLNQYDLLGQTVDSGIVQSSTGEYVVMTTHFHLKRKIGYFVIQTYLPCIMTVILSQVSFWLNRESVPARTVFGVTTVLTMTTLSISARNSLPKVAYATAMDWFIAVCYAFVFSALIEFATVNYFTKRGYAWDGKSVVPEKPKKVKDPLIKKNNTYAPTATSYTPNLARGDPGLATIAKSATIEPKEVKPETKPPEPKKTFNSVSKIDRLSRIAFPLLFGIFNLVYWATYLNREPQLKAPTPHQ
# T1 sequence (P28472 26-473): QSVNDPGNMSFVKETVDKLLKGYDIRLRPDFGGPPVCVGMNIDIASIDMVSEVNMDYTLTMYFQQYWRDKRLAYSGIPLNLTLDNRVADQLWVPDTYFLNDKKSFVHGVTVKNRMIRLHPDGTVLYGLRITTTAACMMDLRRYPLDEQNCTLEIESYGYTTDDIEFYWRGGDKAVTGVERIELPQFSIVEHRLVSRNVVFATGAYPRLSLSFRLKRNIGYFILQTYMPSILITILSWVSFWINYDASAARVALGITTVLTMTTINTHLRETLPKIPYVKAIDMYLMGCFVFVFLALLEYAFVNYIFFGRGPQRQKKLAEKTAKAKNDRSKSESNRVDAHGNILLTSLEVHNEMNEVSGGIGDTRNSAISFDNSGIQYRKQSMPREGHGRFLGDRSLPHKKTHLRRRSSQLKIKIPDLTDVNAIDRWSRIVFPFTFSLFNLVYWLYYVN
# T1 sequence (P18507 40-475): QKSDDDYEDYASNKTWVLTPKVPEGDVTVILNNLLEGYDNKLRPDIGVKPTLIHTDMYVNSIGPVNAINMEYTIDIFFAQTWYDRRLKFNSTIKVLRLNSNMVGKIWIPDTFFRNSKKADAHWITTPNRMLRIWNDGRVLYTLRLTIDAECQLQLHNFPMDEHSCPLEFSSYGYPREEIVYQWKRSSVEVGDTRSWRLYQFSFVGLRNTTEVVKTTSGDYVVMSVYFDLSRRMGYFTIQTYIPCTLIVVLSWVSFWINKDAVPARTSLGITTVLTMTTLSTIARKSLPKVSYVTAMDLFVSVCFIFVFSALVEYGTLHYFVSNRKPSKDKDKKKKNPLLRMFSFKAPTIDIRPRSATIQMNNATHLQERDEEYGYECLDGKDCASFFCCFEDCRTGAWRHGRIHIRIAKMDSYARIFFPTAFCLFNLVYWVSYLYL
smiles,measurement,setting,value
Cc1ccc([C@]2(C)CCCC2(C)C)cc1 [(+)-Cuparene],EC50,α1β3γ2L GABAARs [1],15.1 ± 5.94 µM
COc1cc2c(cc1OC)C(=O)NCC2 [Corydaldine],"whole-cell patch clamp, inhibition of GABA-induced current",α1β3γ2L GABAARs [2],kaempferol and corydaldine suppressed the GABA-induced current by more than half
O=C(O)[C@H](O)Cc1ccc(O)c(O)c1 [Danshensu],I/I0 at 300 μM,α1β3γ2L GABAARs [3],0.89 ± 0.02
O=C1c2c(O)cc(O)cc2O[C@H](c2cc(O)c(O)c(O)c2)[C@H]1O [Dihydromyricetin],I/I0 at 100 μM,α1β3γ2L GABAARs [4],0.63 ± 0.04
CCOC1O[C@H](CO)[C@@H](O)[C@H](O)[C@H]1O (stereo partly shown) [Ethyl glucoside],EC50,α1β3γ2L GABAARs [1],37 ± 8.56 µM
O=c1c(O)c(-c2ccc(O)cc2)oc2cc(O)cc(O)c12 [Kaempferol],"whole-cell patch clamp, inhibition of GABA-induced current",α1β3γ2L GABAARs [2],kaempferol and corydaldine suppressed the GABA-induced current by more than half
C=C1CC/C=C(\C)CC[C@@H]2[C@@H]1CC2(C)C [β-Caryophyllene],EC50,α1β3γ2L GABAARs [1],46.9 ± 6.33 µM
